Measured values as given in PubChem BioAssay AID248 (DTP/NCI, 2004).
“And” between values parts separate entries of the source, which are not always exact repeats. Equal values may be shown once. Inconclusive results and toxic doses are left out. No stated cut-off is given here; in the data, active means T/C of 150% or more; inactive means T/C below 125%.

System: L1210 leukemia ip in BDF1 mice, survival T/C
Test: NCI In Vivo Anticancer Drug Screen. Data for tumor model L1210 Leukemia (intraperitoneal) in B6D2F1 (BDF1) mice
Conditions: endpoint: mean survival time, higher = longer survival
Summary of the method: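 Each compound was tested against a transplantable tumor grown in mice. The endpoint was survival, with treated animals benchmarked against vehicle controls as a simple ratio.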

[1] = dose: 100.0 mg/kg/injection, schedule: Q01DX001 (ip), vehicle: saline
[2] = dose: 200.0 mg/kg/injection, schedule: Q01DX001 (ip), vehicle: saline
[3] = dose: 400.0 mg/kg/injection, schedule: Q01DX001 (ip), vehicle: saline
[4] = dose: 100.0 mg/kg/injection, schedule: Q04DX002 (ip), vehicle: Klucel (hydroxypropylcellulose) (HPC)
[5] = dose: 200.0 mg/kg/injection, schedule: Q04DX002 (ip), vehicle: Klucel (hydroxypropylcellulose) (HPC)
[6] = dose: 400.0 mg/kg/injection, schedule: Q04DX002 (ip), vehicle: Klucel (hydroxypropylcellulose) (HPC)
[7] = dose: 100.0 mg/kg/injection, schedule: Q04DX003 (ip), vehicle: saline with Tween-80
[8] = dose: 200.0 mg/kg/injection, schedule: Q04DX003 (ip), vehicle: saline with Tween-80
[9] = dose: 400.0 mg/kg/injection, schedule: Q04DX003 (ip), vehicle: saline with Tween-80
[10] = dose: 100.0 mg/kg/injection, schedule: Q01DX009 (ip), vehicle: saline with Tween-80
[11] = dose: 200.0 mg/kg/injection, schedule: Q01DX009 (ip), vehicle: saline with Tween-80
[12] = dose: 400.0 mg/kg/injection, schedule: Q01DX009 (ip), vehicle: saline with Tween-80
[13] = dose: 100.0 mg/kg/injection, schedule: Q01DX001 (ip), vehicle: Klucel (hydroxypropylcellulose) (HPC)
[14] = dose: 200.0 mg/kg/injection, schedule: Q01DX001 (ip), vehicle: Klucel (hydroxypropylcellulose) (HPC)
[15] = dose: 25.0 mg/kg/injection, schedule: Q04DX003 (ip), vehicle: saline
[16] = dose: 50.0 mg/kg/injection, schedule: Q04DX003 (ip), vehicle: saline
[17] = dose: 100.0 mg/kg/injection, schedule: Q04DX003 (ip), vehicle: Klucel (hydroxypropylcellulose) (HPC)
[18] = dose: 200.0 mg/kg/injection, schedule: Q04DX003 (ip), vehicle: Klucel (hydroxypropylcellulose) (HPC)
[19] = dose: 400.0 mg/kg/injection, schedule: Q04DX003 (ip), vehicle: Klucel (hydroxypropylcellulose) (HPC)
[20] = dose: 10.0 mg/kg/injection, schedule: Q01DX001 (ip), vehicle: saline
[21] = dose: 12.5 mg/kg/injection, schedule: Q01DX009 (ip), vehicle: saline
[22] = dose: 12.5 mg/kg/injection, schedule: Q04DX003 (ip), vehicle: saline
[23] = dose: 20.0 mg/kg/injection, schedule: Q01DX001 (ip), vehicle: saline
[24] = dose: 25.0 mg/kg/injection, schedule: Q01DX009 (ip), vehicle: saline
[25] = dose: 40.0 mg/kg/injection, schedule: Q01DX001 (ip), vehicle: saline

Measured: T/C

OC/C(=C/c1ccccc1)c1ccccc1
inactive: dose: 50.0 mg/kg/injection, schedule: Q01DX009 (ip), vehicle: Klucel (hydroxypropylcellulose) (HPC) 98 % of control | dose: 75.0 mg/kg/injection, schedule: Q04DX003 (ip), vehicle: Klucel (hydroxypropylcellulose) (HPC) 100 % of control | dose: 100.0 mg/kg/injection, schedule: Q01DX009 (ip), vehicle: Klucel (hydroxypropylcellulose) (HPC) 91 % of control | dose: 150.0 mg/kg/injection, schedule: Q04DX003 (ip), vehicle: Klucel (hydroxypropylcellulose) (HPC) 98 % of control | dose: 200.0 mg/kg/injection, schedule: Q01DX009 (ip), vehicle: Klucel (hydroxypropylcellulose) (HPC) 93 % of control | dose: 300.0 mg/kg/injection, schedule: Q04DX003 (ip), vehicle: Klucel (hydroxypropylcellulose) (HPC) 96 % of control

C=CO
inactive: [1] 103 % of control | [2] 95 % of control | [3] 89 % of control

CCOC(=O)CCCCCC(C)=O
inactive: dose: 100.0 mg/kg/injection, schedule: Q04DX003 (ip), vehicle: acetone 103 % of control | dose: 200.0 mg/kg/injection, schedule: Q04DX003 (ip), vehicle: acetone 100 % of control | dose: 400.0 mg/kg/injection, schedule: Q04DX003 (ip), vehicle: acetone 95 % of control

CCOC(=O)C1(C)Nc2ccc3ccccc3c2NC1=O (stereo not given)
inactive: [4] 93 % of control | [5] 101 % of control | [6] 101 % of control

CN(C)/N=N/c1nc(CCCc2ccccc2)[nH]c1C(N)=O
inactive: [7] 98 % of control | [8] 103 % of control | [9] 110 % of control

O=C(CN1CCOCC1)Nc1ccc(S(=O)(=O)c2ccc([N+](=O)[O-])cc2)cc1
inactive: dose: 75.0 mg/kg/injection, schedule: Q01DX001 (ip), vehicle: acetone 93 % of control | dose: 150.0 mg/kg/injection, schedule: Q01DX001 (ip), vehicle: acetone 93 % of control

CCOC(=O)CCc1cc2cc(C)nnc2[nH]1
inactive: [4] 95 % of control | [5] 91 % of control | [6] 106 % of control

O=C(c1ccccc1Br)C(Br)C(Br)c1ccccc1 (stereo not given)
inactive: [10] 98 % of control | [11] 93 % of control | [12] 91 % of control

C=C1CC(OC(C)=O)C2C(C)C(=O)OC2C2C1CC1OC12C (stereo not given)
inactive: dose: 100.0 mg/kg/injection, schedule: Q04DX002 (ip), vehicle: saline 92 % of control | dose: 200.0 mg/kg/injection, schedule: Q04DX002 (ip), vehicle: saline 92 % of control

NC1=Nc2ccccc2CS1
inactive: dose: 18.8 mg/kg/injection, schedule: Q04DX003 (ip), vehicle: saline 95 % of control | dose: 37.5 mg/kg/injection, schedule: Q04DX003 (ip), vehicle: saline 101 % of control

CCCCC1(CC)COC(C)(CCc2ccc(OC)cc2)OC1 (stereo not given)
inactive: dose: 100.0 mg/kg/injection, schedule: Q01DX001 (ip), vehicle: acetone 93 % of control | dose: 200.0 mg/kg/injection, schedule: Q01DX001 (ip), vehicle: acetone 93 % of control | dose: 400.0 mg/kg/injection, schedule: Q01DX001 (ip), vehicle: acetone 90 % of control

Cc1nc2c3nc(C)oc3c3ccccc3c2o1
inactive: [13] 97 % of control | [14] 89 % of control | dose: 400.0 mg/kg/injection, schedule: Q01DX001 (ip), vehicle: Klucel (hydroxypropylcellulose) (HPC) 86 % of control

Cc1ccc2c(c1)CCCN2C=O
inactive: dose: 50.0 mg/kg/injection, schedule: Q01DX009 (ip), vehicle: saline with Tween-80 95 % of control | [10] 93 % of control | [7] 102 % of control | [11] 102 % of control | [8] 94 % of control

Cc1ccc(NC(=O)NCC(=O)O)cc1
inactive: dose: 100.0 mg/kg/injection, schedule: Q01DX001 (ip), vehicle: carboxymethylcellulose (CMC) 101 % of control | dose: 200.0 mg/kg/injection, schedule: Q01DX001 (ip), vehicle: carboxymethylcellulose (CMC) 97 % of control | dose: 400.0 mg/kg/injection, schedule: Q01DX001 (ip), vehicle: carboxymethylcellulose (CMC) 109 % of control

Cc1ccccc1NC1=C(Cl)C(=O)c2ccccc2C1=O
inactive: [15] 93 % of control | [16] 93 % of control | [1] 93 % of control

COC(=O)C#CC(c1ccccc1)(c1ccccc1)c1ccccc1
inactive: [7] 90 % of control | [8] 87 % of control | [9] 90 % of control

CC(C)=NOC(=O)NCCCl
inactive: [17] 103 % of control | [18] 101 % of control | [19] 97 % of control

CC(N)CCc1ccccc1 (stereo not given)
inactive: [20] 105 % of control | [21] 97 % of control | [22] 102 % of control | [23] 101 % of control | [24] 95 % of control | [15] 112 % of control | [25] 95 % of control | dose: 50.0 mg/kg/injection, schedule: Q01DX009 (ip), vehicle: saline 97 % of control | dose: 50.0 mg/kg/injection, schedule: Q04DX003 (ip), vehicle: saline with Tween-80 90 % of control | [16] 104 % of control | dose: 80.0 mg/kg/injection, schedule: Q01DX001 (ip), vehicle: saline 101 % of control | [1] 100 % of control

CC1C[N+](C)=C2CCCCC2=C1N (stereo not given)
inactive: dose: 6.25 mg/kg/injection, schedule: Q01DX009 (ip), vehicle: saline 105 % of control | dose: 6.25 mg/kg/injection, schedule: Q04DX003 (ip), vehicle: saline 96 % of control | [21] 98 % of control | [22] 98 % of control | [24] 102 % of control | [15] 108 % of control

COc1ccc(-n2c(=O)c(N=Nc3ccc(Br)cc3)c(O)n(-c3ccc(C)cc3)c2=S)cc1
inactive: dose: 50.0 mg/kg/injection, schedule: Q01DX001 (ip), vehicle: Klucel (hydroxypropylcellulose) (HPC) 94 % of control | [13] 92 % of control | [14] 88 % of control

CCCCc1ccc2nc3cc4ccccc4cc3nc2c1
inactive: dose: 50.0 mg/kg/injection, schedule: Q01DX001 (ip), vehicle: saline 95 % of control | [1] 98 % of control | [2] 93 % of control | [3] 110 % of control

CC(C)C(=O)Nc1cccnc1
inactive: [20] 100 % of control | [23] 103 % of control | [25] 94 % of control

COc1cc(Nc2ncnc(N)c2[N+](=O)[O-])cc(OC)c1OC
inactive: [8] 88 % of control

CC1CCC2(OC1)OC1C(O)C3C4CCC5CC(OC6OC(CO)C(OC7OC(CO)C(O)C(OC8OCC(O)C(O)C8O)C7OC7OC(CO)C(O)C(OC8OC(CO)C(O)C(O)C8O)C7O)C(O)C6O)C(O)CC5(C)C4CCC3(C)C1C2C (stereo not given)
inactive: dose: 25.0 mg/kg/injection, schedule: Q01DX001 (ip), vehicle: saline with Tween-80 93 % of control

CC(C)=CC(=O)Nc1cccc(O)c1
inactive: [10] 96 % of control | [11] 91 % of control | [12] 92 % of control

CCCCCCCCCCCCCCCC(=O)Nc1cccc2cnccc12
inactive: [17] 100 % of control | [18] 97 % of control | [19] 105 % of control

COc1ccc(-c2cc(=O)c3c(O)cc(O)c(-c4cc(-c5cc(=O)c6c(O)cc(OC)cc6o5)ccc4OC)c3o2)cc1
inactive: dose: 55.0 mg/kg/injection, schedule: Q01DX Z (ip), vehicle: methylcellulose (MC) 98 % of control | dose: 83.0 mg/kg/injection, schedule: Q01DX Z (ip), vehicle: methylcellulose (MC) 92 % of control | dose: 125.0 mg/kg/injection, schedule: Q01DX Z (ip), vehicle: methylcellulose (MC) 93 % of control

CCCCCP(=O)(CCCCC)CCCCC
inactive: dose: 25.0 mg/kg/injection, schedule: Q04DX002 (ip), vehicle: saline with Tween-80 100 % of control | dose: 50.0 mg/kg/injection, schedule: Q04DX002 (ip), vehicle: saline with Tween-80 94 % of control | dose: 100.0 mg/kg/injection, schedule: Q04DX002 (ip), vehicle: saline with Tween-80 98 % of control and 106 % of control
